Reference: publication PMC7898037, “Improving mitochondria and ER stability helps eliminate upper motor neuron degeneration that occurs due to mSOD1 toxicity and TDP‐43 pathology” (Clinical and Translational Medicine, 2021)

Test: Weight of the mice
Assay type: in vivo
Set-up: Mean Diff. of weight, vehicle vs. NU-9: unit not given here
Settings: for Mean weight (Mean 2): hSOD1G93A-UeGFP mice, in g (unit assumed); for Weight, Average: hSOD1G93A-UeGFP
Protocol: hSOD1^G93A‐UeGFP, prpTDP‐43^A315T‐UeGFP and WT‐UeGFP mice were weighed and the required NU‐9 dose per weight was calculated (20 or 100 mg/kg), which was administered once daily by oral gavage, starting at postnatal day (P)60 and continuing until P120. Animals from the untreated group received the vehicle (NMP and olive oil) only. For oral administration purposes, 20 ga × 38 mm plastic feeding tubes were used (Instech Laboratories, Inc). The gavage tip was inserted into the mouth directly over the tongue and into the pharynx. While observing the swallowing reflex, the tip was safely and smoothly slid into the esophagus. Once the administration was completed, the gavage tip was pulled straight out.
Behavior data were collected from hSOD1^G93A‐UeGFP and WT‐UeGFP mice (starting at P60 and every 7 days until P116) and from prpTDP‐43^A315T‐UeGFP mice (at P60, P90, and P120) with the following number of mice for each group: WT‐UeGFP vehicle (n = 10), hSOD1^G93A‐UeGFP vehicle (n = 6), WT‐UeGFP 20 mg/kg/day NU‐9 (n = 5), hSOD1^G93A‐UeGFP 20 mg/kg/day NU‐9 (n = 7), WT‐UeGFP 100 mg/kg/day NU‐9 (n = 11), hSOD1^G93A‐UeGFP 100 mg/kg/day NU‐9 (n = 9), prpTDP‐43^A315T‐UeGFP untreated (n ≥ 3), and prpTDP‐43^A315T‐UeGFP 100 mg/kg/day NU‐9 (n = 4) (Table S3).

SMILES: C[C@H](Oc1cc(C(F)(F)F)cc(C(F)(F)F)c1)C1CC(=O)CC(=O)C1 [NU‐9]
- Mean Diff. of weight, vehicle vs. NU-9 (hSOD1G93A-UeGFP (vehicle) vs. hSOD1G93A-UeGFP (NU-9 20 mg/kg/day), P60, Tukey's multiple comparisons test): 0.6667
- Mean Diff. of weight, vehicle vs. NU-9 (hSOD1G93A-UeGFP (vehicle) vs. hSOD1G93A-UeGFP (NU-9 20 mg/kg/day), P67, Tukey's multiple comparisons test): 0.6429
- Mean Diff. of weight, vehicle vs. NU-9 (hSOD1G93A-UeGFP (vehicle) vs. hSOD1G93A-UeGFP (NU-9 20 mg/kg/day), P74, Tukey's multiple comparisons test): 0.2381
- Mean Diff. of weight, vehicle vs. NU-9 (hSOD1G93A-UeGFP (vehicle) vs. hSOD1G93A-UeGFP (NU-9 20 mg/kg/day), P81, Tukey's multiple comparisons test): 0.5952
- Mean Diff. of weight, vehicle vs. NU-9 (hSOD1G93A-UeGFP (vehicle) vs. hSOD1G93A-UeGFP (NU-9 20 mg/kg/day), P88, Tukey's multiple comparisons test): 0.2857
- Mean Diff. of weight, vehicle vs. NU-9 (hSOD1G93A-UeGFP (vehicle) vs. hSOD1G93A-UeGFP (NU-9 20 mg/kg/day), P95, Tukey's multiple comparisons test): 0.7619
- Mean Diff. of weight, vehicle vs. NU-9 (hSOD1G93A-UeGFP (vehicle) vs. hSOD1G93A-UeGFP (NU-9 20 mg/kg/day), P102, Tukey's multiple comparisons test): 0.5714
- Mean Diff. of weight, vehicle vs. NU-9 (hSOD1G93A-UeGFP (vehicle) vs. hSOD1G93A-UeGFP (NU-9 20 mg/kg/day), P109, Tukey's multiple comparisons test): 0.4762
- Mean Diff. of weight, vehicle vs. NU-9 (hSOD1G93A-UeGFP (vehicle) vs. hSOD1G93A-UeGFP (NU-9 20 mg/kg/day), P116, Tukey's multiple comparisons test): -0.1429
- Mean Diff. of weight, vehicle vs. NU-9 (hSOD1G93A-UeGFP (vehicle) vs. hSOD1G93A-UeGFP (NU-9 100 mg/kg/day), P60, Tukey's multiple comparisons test): 1.222
- Mean Diff. of weight, vehicle vs. NU-9 (hSOD1G93A-UeGFP (vehicle) vs. hSOD1G93A-UeGFP (NU-9 100 mg/kg/day), P67, Tukey's multiple comparisons test): 1.167
- Mean Diff. of weight, vehicle vs. NU-9 (hSOD1G93A-UeGFP (vehicle) vs. hSOD1G93A-UeGFP (NU-9 100 mg/kg/day), P74, Tukey's multiple comparisons test): 0.2222
- Mean Diff. of weight, vehicle vs. NU-9 (hSOD1G93A-UeGFP (vehicle) vs. hSOD1G93A-UeGFP (NU-9 100 mg/kg/day), P81, Tukey's multiple comparisons test): 0.7222
- Mean Diff. of weight, vehicle vs. NU-9 (hSOD1G93A-UeGFP (vehicle) vs. hSOD1G93A-UeGFP (NU-9 100 mg/kg/day), P88, Tukey's multiple comparisons test): 0.1111
- Mean Diff. of weight, vehicle vs. NU-9 (hSOD1G93A-UeGFP (vehicle) vs. hSOD1G93A-UeGFP (NU-9 100 mg/kg/day), P95, Tukey's multiple comparisons test): 0.1111
- Mean Diff. of weight, vehicle vs. NU-9 (hSOD1G93A-UeGFP (vehicle) vs. hSOD1G93A-UeGFP (NU-9 100 mg/kg/day), P102, Tukey's multiple comparisons test): 0
- Mean Diff. of weight, vehicle vs. NU-9 (hSOD1G93A-UeGFP (vehicle) vs. hSOD1G93A-UeGFP (NU-9 100 mg/kg/day), P109, Tukey's multiple comparisons test): 0.5556
- Mean Diff. of weight, vehicle vs. NU-9 (hSOD1G93A-UeGFP (vehicle) vs. hSOD1G93A-UeGFP (NU-9 100 mg/kg/day), P116, Tukey's multiple comparisons test): 0.1111
- Mean weight (Mean 2) (NU-9 20 mg/kg/day, P60): 17
- Mean weight (Mean 2) (NU-9 20 mg/kg/day, P67): 16.86
- Mean weight (Mean 2) (NU-9 20 mg/kg/day, P74): 16.43
- Mean weight (Mean 2) (NU-9 20 mg/kg/day, P81): 16.57
- Mean weight (Mean 2) (NU-9 20 mg/kg/day, P88): 16.71
- Mean weight (Mean 2) (NU-9 20 mg/kg/day, P95): 16.57
- Mean weight (Mean 2) (NU-9 100 mg/kg/day, P60): 16.44
- Mean weight (Mean 2) (NU-9 100 mg/kg/day, P67): 16.33
- Mean weight (Mean 2) (NU-9 100 mg/kg/day, P74): 16.44
- Mean weight (Mean 2) (NU-9 100 mg/kg/day, P81): 16.44
- Mean weight (Mean 2) (NU-9 100 mg/kg/day, P88): 16.89
- Mean weight (Mean 2) (NU-9 100 mg/kg/day, P95): 17.22
- Weight, Average (NU-9 20 mg/kg/day po, P60): 17 g
- Weight, Average (NU-9 20 mg/kg/day po, P67): 16.8571 g
- Weight, Average (NU-9 20 mg/kg/day po, P74): 16.4286 g
- Weight, Average (NU-9 20 mg/kg/day po, P81): 16.5714 g
- Weight, Average (NU-9 20 mg/kg/day po, P88): 16.7143 g
- Weight, Average (NU-9 20 mg/kg/day po, P95): 16.5714 g
- Weight, Average (NU-9 20 mg/kg/day po, P102): 16.4286 g
- Weight, Average (NU-9 20 mg/kg/day po, P109): 16.8571 g
- Weight, Average (NU-9 20 mg/kg/day po, P116): 17.1429 g
- Weight, Average (NU-9 100 mg/kg/day po, P60): 16.4444 g
- Weight, Average (NU-9 100 mg/kg/day po, P67): 16.3333 g
- Weight, Average (NU-9 100 mg/kg/day po, P74): 16.4444 g
- Weight, Average (NU-9 100 mg/kg/day po, P81): 16.4444 g
- Weight, Average (NU-9 100 mg/kg/day po, P88): 16.8889 g
- Weight, Average (NU-9 100 mg/kg/day po, P95): 17.2222 g
- Weight, Average (NU-9 100 mg/kg/day po, P102): 17 g
- Weight, Average (NU-9 100 mg/kg/day po, P109): 16.7778 g
- Weight, Average (NU-9 100 mg/kg/day po, P116): 16.8889 g
